# In patent US5714142A, “Method and compositions for increasing the serum half-life of pharmacologically active agents by binding to transthyretin-selective ligands” (priority 1996, dated 1998):
# Where two headings read alike, the source gives them in different places.
# What was measured:
# [1] = cited from earlier work
# TTR (transthyretin) = TTR (transthyretin) (Homo sapiens, UniProt P02766); experiment: percent inhibition of radiolabelled T4 binding to TTR (procedure of R. Somack et al.); conditions: for inhibition at 10 µM: read-out: ~% T4 (percent inhibition of radiolabelled T4 binding to TTR); for inhibition at 1 µM: [I] 1 uM
# Text: Results are set forth in the following table, wherein "%T4 " represents the percent inhibition of radiolabelled T4 binding to TTR".
# human astrocytoma cells = conditions: C. M. Divino et al. 1990; cited from earlier work
inhibition at 10 µM (TTR (transthyretin); [I] 10 uM) [%],Compound,further results
,superoxide dismutase,"half-life ([1]; unconjugated, G. D. Mao et al. 1989): five"
~85,OCCc1cc(I)c(O)c(I)c1,
~70,O=C(O)Cc1cc(I)c(O)c(I)c1,
,O=C(O)c1ccc(-c2cc(I)c(O)c(I)c2)cc1,inhibition at 1 µM (TTR (transthyretin)): ~80%
~45,CC(C)(C)OC(=O)NCCOCCOCCNC(=O)Cc1cc(I)c(O)c(I)c1,
~25,NCCOCCOCCNC(=O)Cc1cc(I)c(O)c(I)c1,
,Oc1c(I)cc(I)cc1I,inhibition at 10 µM (TTR (transthyretin)): ~90%
~90,O=C(O)Cc1cc(I)c(Oc2cc(I)c(O)c(I)c2)c(I)c1,
~90,O=C(Cc1cc(I)c(O)c(I)c1)OCC#CCO,
~40,CC(C)(C)OC(=O)NCCCCCCNC(=O)Cc1cc(I)c(O)c(I)c1,
~15,NCCCCCCNC(=O)Cc1cc(I)c(O)c(I)c1,
,OCc1cc(I)c(O)c(I)c1,inhibition at 1 µM (TTR (transthyretin)): ~70%
,transthyretin,t1/2 ([1]; up to about): up to two; binding to cell sites (human astrocytoma cells): binds to specific high affinity sites on human astrocytoma cells
~80,O=C(O)CCc1cc(I)c(O)c(I)c1,
